# According to patent US9388126B2, “Sigma receptor ligands and methods of modulating cellular protein homeostasis using same” (Drexel University, priority 2012, dated 2016):
# Tested on: MDA-MB-468 breast tumor cells
# Test: Akt, S6K and ERK phosphorylation immunoblots
# Assay type: cell-based, human
# Procedure: FIG. 40, comprising FIGS. 40A-40C, illustrates Sigma1 antagonist modulation of Akt, S6K, and ERK phosphorylation. MDA-MB-468 breast tumor cells were treated for 24 hours with 10 μM IPAG (Sigma1 antagonist) or (+)SKF-10047 (SKF, Sigma1 agonist). Treated cells were harvested and cellular proteins were extracted with a buffer containing 1% Sodium Dodecyl Sulfate (SDS) and deoxycholate (DOC), supplemented with phosphatase and protease inhibitors. FIG. 40A is an image of an immunoblot illustrating Akt phosphorylation. […] Akt phosphorylation at threonine 308 was not altered in any of the samples (not shown). Equivalent loading was confirmed with an anti-GAPDH antibody. FIG. 40B is an image of an immunoblot illustrating phosphorylation. Phosphorylation of mTOR substrate, p70S6K at threonine 389 decreased 3-fold in IPAG, but not SKF treated cells. Total p70S6K was immunoblotted as a loading control. FIG. 40C is an immunoblot illustrating that p44/42 ERK1/2phosphorylation at threonine 202 and tyrosine 204 was abrogated by 24 hour treatment with IPAG. Data shown is representative of two independent experiments.
smiles,measurement,setting,value
"N=C(Nc1ccc(I)cc1)NC1C2CC3CC(C2)CC1C3 (stereo not drawn) [IPAG, 1-(4-iodophenyl)-3-(2-adamantyl)guanidine]",decrease of Akt phosphorylation at serine 473,"10 μM, 24 hours",3 fold
same,decrease of p70S6K phosphorylation at threonine 389,"10 μM, 24 hours",3 fold
same,p44/42 ERK1/2 phosphorylation at threonine 202 and tyrosine 204,24 hour treatment,abrogated
